Measured values reported in US10221440B2, “Method for determining the sensitivity of microorganisms to antimicrobial substances” (priority 2012, dated 2019).

Columns and labels:
[1] = system: bacteria in secretion from the wound of a dog with a wound infection; assay: Express determination of bacteria sensitivity, wound secretion of a dog; assay type: cell-based; settings: ampicillin 1 μg/ml in enriched Columbia Agar, 37° C., lawn in control after 4-6 hours
Description: Express determination of bacteria sensitivity to ampicillin while inoculating material obtained from an animal (a dog) with a wound infection.
The method was carried out similarly to the way described in example 1.
Material to be investigated: secretion from the wound.
Nutrient medium: Columbia Agar medium enriched with horse serum and sheep red blood cells, vitamins and amino acids. Ampicillin was added to the medium in maximum concentration achievable at the location where the material was taken—1 μg/ml.
Material taken from the wound was plated using a swab on the medium in a Petri dish. Same medium and cultivation conditions (without ampicillin) were used for control purposes.
The culture was incubated at temperature of 37° C.

[2] = system: bacteria in urine of a patient suffering from cystitis; assay type: cell-based
[3] = system: anaerobes in secretion of subgingival space of a patient with a disease of periodontium; assay: Sensitivity to antibiotics and their mixture, subgingival secretion, anaerobic conditions; assay type: cell-based, anaerobic bacteria; settings: Schaedler Agar, dishes 1a-3a, 37° C., after 8 hours
Source text: (§1) Express determination of sensitivity to a mixture of antibiotics, namely gentamicin (mainly affects aerobic bacteria) and metronidazole (active against anaerobic bacteria and microaerophils), while inoculating material obtained from a patient suffering from a disease of periodontium. Material to be investigated: freshly collected secretion of subgingival space. Nutrient medium: Columbia Agar medium enriched with sheep red blood cells and horse serum was used for cultivation in aerobic conditions. Anaerobic microorganisms were detected using Schaedler Agar containing sheep red blood cells and serum. […] were added to the medium: gentamicin (active against a wide range of aerobes) and metronidazole that selectively affects anaerobic bacteria. Medium in dishes 1 and 1a contains gentamicin; medium in dishes 2 and 2a contains metronidazole; medium in dishes 3 and 3a contains gentamicin and metronidazole; dishes 4 and 4a contain only the nutrient medium (control). The secretion of subgingival space was diluted fivefold using isotonic solution of sodium chloride and plated in the amount of 0.05 ml per dish using a spreader. […] The results were analyzed after 4, 8, 12, 20, 24 and 48 hours after the inoculation (anaerobic bacteria are characterized by lengthy growth).

[4] = system: aerobes in secretion of subgingival space of a patient with a disease of periodontium; assay: Sensitivity to antibiotics and their mixture, subgingival secretion, aerobic conditions; assay type: cell-based, aerobic bacteria; settings: Columbia Agar, dishes 1-3, 37° C., whole observation period; lawn in control after 4 hours
Source text: as §1

[5] = system: fungi that cause diseases of plants (powdery mildew); assay: Express determination of sensitivity of plant-disease fungi to antifungal preparations; assay type: cell-based; settings: 30° C., nystatin 0.4 mg/l; for growth in the well with the antifungal preparation: Sabouraud Agar with gentamicin 0.01 mg/l, after 8 hours, propiconazole 1%
Description: Express determination of the sensitivity of fungi that cause diseases of plants (powdery mildew) to antifungal preparations.
Material to be investigated: wipe sampling of isotonic solution of sodium chloride taken from affected areas of a leaf of a plant that has indications of fungi growth.
Nutrient medium: Sabouraud Agar medium enriched with mineral components, placed into a plate with six wells. in order to prevent the growth of bacteria, gentamicin was added to the agar in the amount of 0.01 mg/l. The antifungal preparations to be investigated were also added to the medium: 1st well—propiconazole, in final concentration of 1%; 2nd well—nystatin (0.4 mg/l); 3rd well—control without any antifungal preparations.
1.0 ml of isotonic solution a sodium chloride was washed from […] of the affected area. The material was plated using an inoculation loop.
The inoculations were cultivated at 30° C. The results were analyzed after 6, 8, 12, 20, 24 and 48 hours after the inoculation.

| Compound | microbial growth in anaerobic conditions [3] | microbial growth in aerobic conditions [4] | growth in the well with the antifungal preparation [5] | further results |
| --- | --- | --- | --- | --- |
| CC1(C)S[C@@H]2[C@H](NC(=O)[C@H](N)c3ccccc3)C(=O)N2[C@H]1C(=O)O [ampicillin] |  |  |  | bacterial growth in the dish with the antibiotic [1]: No bacterial growth |
| CC[C@H]1OC(=O)[C@H](C)[C@@H](O[C@H]2C[C@@](C)(OC)[C@@H](O)[C@H](C)O2)[C@H](C)[C@@H](O[C@@H]2O[C@H](C)C[C@H](N(C)C)[C@H]2O)[C@](C)(O)C[C@@H](C)CN(C)[C@H](C)[C@@H](O)[C@]1(C)O [azithromycin] |  |  |  | growth of bacteria in the presence of the antibiotic [2]: no growth |
| Cc1ncc([N+](=O)[O-])n1CCO [metronidazole] | Microbial growth | Microbial growth |  |  |
| C[C@@H]1[C@H](O)[C@@H](C)/C=C/C=C/CC/C=C/C=C/C=C/C=C/C(O[C@H]2O[C@H](C)[C@@H](O)[C@H](N)[C@@H]2O)CC2O[C@](O)(CC(O)C(O)CCC(O)CC(O)CC(O)CC(=O)O[C@H]1C)CC(O)C2C(=O)O (stereo partly drawn) [nystatin] |  |  | growth was observed | sensitivity of the mold to the preparation [5]: resistant |
| CCCC1COC(Cn2cncn2)(c2ccc(Cl)cc2Cl)O1 (stereo not drawn) [propiconazole] |  |  | No growth |  |
| gentamicin | Microbial growth | Microbial growth |  |  |
